Data published in ChEMBL document CHEMBL3044763, “Inhibitory Activities of Rhodanine Derivatives on Plant Growth” (Biosci Biotechnol Biochem, 1996).

Legend:
[1] = test system: Brassica rapa subsp. oleifera; experiment: Growth inhibition of Brassica rapa subsp. oleifera assessed as chlorophyll b level at 3 x 10^-4 M after 7 days; type: functional; design: scale not given: the % may be the effect or the level left
[2] = Toxicity in ip dosed Mus musculus ddY (mouse) assessed as mortality after 1 to 7 days; type: organism-based; conditions: in vivo
[3] = Toxicity in Mus musculus ddY (mouse) assessed as mortality at 3 mg/kg, ip after 7 days; type: organism-based; design: dose 3 mg/kg, route intraperitoneal; conditions: in vivo
[4] = Toxicity in Mus musculus ddY (mouse) assessed as mortality at 5 mg/kg, ip after 7 days; type: organism-based; design: dose 5 mg/kg, route intraperitoneal; conditions: in vivo
[5] = Toxicity in Mus musculus ddY (mouse) assessed as mortality at 4 mg/kg, ip after 7 days; type: organism-based; design: dose 4 mg/kg, route intraperitoneal; conditions: in vivo
[6] = Toxicity in Mus musculus ddY (mouse) assessed as mortality at 6 mg/kg, ip after 7 days; type: organism-based; design: dose 6 mg/kg, route intraperitoneal; conditions: in vivo
[7] = Toxicity in Mus musculus ddY (mouse) assessed as mortality at 7 mg/kg, ip after 7 days; type: organism-based; design: dose 7 mg/kg, route intraperitoneal; conditions: in vivo
[8] = test system: Brassica rapa subsp. oleifera; experiment: Growth inhibition of Brassica rapa subsp. oleifera assessed as total chlorophyll level at 5 x 10^-5 M after 7 days; type: functional; design: scale not given: the % may be the effect or the level left
[9] = test system: Brassica rapa subsp. oleifera; experiment: Growth inhibition of Brassica rapa subsp. oleifera assessed as total chlorophyll level at 3 x 10^-5 M after 7 days; type: functional; design: scale not given: the % may be the effect or the level left
[10] = test system: Brassica rapa subsp. oleifera; experiment: Growth inhibition of Brassica rapa subsp. oleifera assessed as total chlorophyll level at 1 x 10^-4 M after 7 days; type: functional; design: scale not given: the % may be the effect or the level left
[11] = test system: Brassica rapa subsp. oleifera; experiment: Growth inhibition of Brassica rapa subsp. oleifera assessed as total chlorophyll level at 3 x 10^-4 M after 7 days; type: functional; design: scale not given: the % may be the effect or the level left
Allium tuberosum [12] = experiment: Growth inhibition of Allium tuberosum assessed as root growth at 5 x 10^-5 M after 10 days; type: functional
Allium tuberosum [13] = experiment: Growth inhibition of Allium tuberosum assessed as root growth at 3 x 10^-5 M after 10 days; type: functional
Echinochloa esculenta [14] = experiment: Growth inhibition of Echinochloa esculenta assessed as root growth at 3 x 10^-5 M after 7 days; type: functional
Echinochloa esculenta [15] = experiment: Growth inhibition of Echinochloa esculenta assessed as root growth at 1 x 10^-4 M after 7 days; type: functional
Echinochloa esculenta [16] = experiment: Growth inhibition of Echinochloa esculenta assessed as root growth at 5 x 10^-5 M after 7 days; type: functional
[17] = test system: Brassica rapa subsp. oleifera; experiment: Growth inhibition of Brassica rapa subsp. oleifera assessed as root growth at 5 x 10^-5 M after 7 days; type: functional
[18] = test system: Brassica rapa subsp. oleifera; experiment: Growth inhibition of Brassica rapa subsp. oleifera assessed as root growth at 1 x 10^-4 M after 7 days; type: functional
[19] = test system: Brassica rapa subsp. oleifera; experiment: Growth inhibition of Brassica rapa subsp. oleifera assessed as root growth at 3 x 10^-4 M after 7 days; type: functional
Lactuca sativa [20] = experiment: Growth inhibition of Lactuca sativa (lettuce) assessed as root growth at 3 x 10^-5 M after 7 days; type: functional
Lactuca sativa [21] = experiment: Growth inhibition of Lactuca sativa (lettuce) assessed as root growth at 5 x 10^-5 M after 7 days; type: functional
Lactuca sativa [22] = experiment: Growth inhibition of Lactuca sativa (lettuce) assessed as root growth at 1 x 10^-4 M after 7 days; type: functional
Daucus carota [23] = experiment: Growth inhibition of Daucus carota (carrot) assessed as root growth at 5 x 10^-5 M after 7 days; type: functional
Daucus carota [24] = experiment: Growth inhibition of Daucus carota (carrot) assessed as root growth at 3 x 10^-5 M after 7 days; type: functional
Daucus carota [25] = experiment: Growth inhibition of Daucus carota (carrot) assessed as root growth at 1 x 10^-4 M after 7 days; type: functional
Daucus carota [26] = experiment: Growth inhibition of Daucus carota (carrot) assessed as root growth at 3 x 10^-4 M after 7 days; type: functional
Sesamum indicum [27] = experiment: Growth inhibition of Sesamum indicum (sesame) assessed as root growth at 1 x 10^-5 M after 7 days; type: functional
Sesamum indicum [28] = experiment: Growth inhibition of Sesamum indicum (sesame) assessed as root growth at 3 x 10^-4 M after 7 days; type: functional
[29] = Toxicity in Mus musculus ddY (mouse) assessed as mortality at 4 mg/kg, ip after 3 days; type: organism-based; design: dose 4 mg/kg, route intraperitoneal; conditions: in vivo
[30] = Toxicity in Mus musculus ddY (mouse) assessed as mortality at 6 mg/kg, ip after 3 days; type: organism-based; design: dose 6 mg/kg, route intraperitoneal; conditions: in vivo
[31] = Toxicity in Mus musculus ddY (mouse) assessed as mortality at 5 mg/kg, ip after 3 days; type: organism-based; design: dose 5 mg/kg, route intraperitoneal; conditions: in vivo
[32] = Toxicity in Mus musculus ddY (mouse) assessed as mortality at 7 mg/kg, ip after 3 days; type: organism-based; design: dose 7 mg/kg, route intraperitoneal; conditions: in vivo
[33] = Toxicity in Mus musculus ddY (mouse) assessed as mortality at 3 mg/kg, ip after 2 days; type: organism-based; design: dose 3 mg/kg, route intraperitoneal; conditions: in vivo
[34] = Toxicity in Mus musculus ddY (mouse) assessed as mortality at 7 mg/kg, ip after 2 days; type: organism-based; design: dose 7 mg/kg, route intraperitoneal; conditions: in vivo
[35] = Toxicity in Mus musculus ddY (mouse) assessed as mortality at 6 mg/kg, ip after 2 days; type: organism-based; design: dose 6 mg/kg, route intraperitoneal; conditions: in vivo
[36] = Toxicity in Mus musculus ddY (mouse) assessed as mortality at 4 mg/kg, ip after 1 day; type: organism-based; design: dose 4 mg/kg, route intraperitoneal; conditions: in vivo
[37] = Toxicity in Mus musculus ddY (mouse) assessed as mortality at 3 mg/kg, ip after 1 day; type: organism-based; design: dose 3 mg/kg, route intraperitoneal; conditions: in vivo
[38] = Toxicity in Mus musculus ddY (mouse) assessed as mortality at 6 mg/kg, ip after 1 day; type: organism-based; design: dose 6 mg/kg, route intraperitoneal; conditions: in vivo
[39] = Toxicity in Mus musculus ddY (mouse) assessed as mortality at 5 mg/kg, ip after 1 day; type: organism-based; design: dose 5 mg/kg, route intraperitoneal; conditions: in vivo
[40] = Toxicity in Mus musculus ddY (mouse) assessed as mortality at 7 mg/kg, ip after 1 day; type: organism-based; design: dose 7 mg/kg, route intraperitoneal; conditions: in vivo
[41] = test system: Brassica rapa subsp. oleifera; experiment: Growth inhibition of Brassica rapa subsp. oleifera assessed as chlorophyll b level at 3 x 10^-5 M after 7 days; type: functional; design: scale not given: the % may be the effect or the level left
[42] = test system: Brassica rapa subsp. oleifera; experiment: Growth inhibition of Brassica rapa subsp. oleifera assessed as chlorophyll b level at 5 x 10^-5 M after 7 days; type: functional; design: scale not given: the % may be the effect or the level left
[43] = test system: Brassica rapa subsp. oleifera; experiment: Growth inhibition of Brassica rapa subsp. oleifera assessed as chlorophyll a level at 1 x 10^-4 M after 7 days; type: functional; design: scale not given: the % may be the effect or the level left
[44] = Toxicity in Mus musculus ddY (mouse) assessed as mortality at 4 mg/kg, ip after 4 days; type: organism-based; design: dose 4 mg/kg, route intraperitoneal; conditions: in vivo
[45] = Toxicity in Mus musculus ddY (mouse) assessed as mortality at 5 mg/kg, ip after 4 days; type: organism-based; design: dose 5 mg/kg, route intraperitoneal; conditions: in vivo
[46] = Toxicity in Mus musculus ddY (mouse) assessed as mortality at 8 mg/kg, ip after 4 days; type: organism-based; design: dose 8 mg/kg, route intraperitoneal; conditions: in vivo
[47] = Toxicity in Mus musculus ddY (mouse) assessed as mortality at 6 mg/kg, ip after 6 days; type: organism-based; design: dose 6 mg/kg, route intraperitoneal; conditions: in vivo
[48] = Toxicity in Mus musculus ddY (mouse) assessed as mortality at 5 mg/kg, ip after 6 days; type: organism-based; design: dose 5 mg/kg, route intraperitoneal; conditions: in vivo
[49] = Toxicity in Mus musculus ddY (mouse) assessed as mortality at 7 mg/kg, ip after 6 days; type: organism-based; design: dose 7 mg/kg, route intraperitoneal; conditions: in vivo
[50] = Toxicity in Mus musculus ddY (mouse) assessed as mortality at 4 mg/kg, ip after 5 days; type: organism-based; design: dose 4 mg/kg, route intraperitoneal; conditions: in vivo
[51] = Toxicity in Mus musculus ddY (mouse) assessed as mortality at 5 mg/kg, ip after 5 days; type: organism-based; design: dose 5 mg/kg, route intraperitoneal; conditions: in vivo
[52] = Toxicity in Mus musculus ddY (mouse) assessed as mortality at 7 mg/kg, ip after 5 days; type: organism-based; design: dose 7 mg/kg, route intraperitoneal; conditions: in vivo

For `NN1C(=O)CSC1=S` [AMINORHODANINE], which Activity [1] is on record?
The Activity was 3.4%.

What about the LD50 [2] of the same compound?
Its LD50 is 5.07 mg/kg.

What about the mortality at 168 h [3] of the same compound?
Its mortality at 168 h is 0%.

And the mortality at 168 h [4]?
Its mortality at 168 h is 60%.

And the mortality at 168 h [5]?
The mortality at 168 h was 20%.

What about the mortality at 168 h [6] of the same compound?
The mortality at 168 h was 60%.

What about the mortality at 168 h [7] of the same compound?
Its mortality at 168 h is 80%.

What about the Activity [8] of the same compound?
The Activity was 13.57%.

What about the Activity [9] of the same compound?
Its Activity is 15.83%.

What about the Activity [10] of the same compound?
Its Activity is 11.85%.

And the Activity [11]?
The Activity was 11.16%.

And the Activity (Allium tuberosum [12])?
Its Activity is 8.6 mm.

And the Activity (Allium tuberosum [13])?
Its Activity is 7 mm.

What about the Activity (Echinochloa esculenta [14]) of the same compound?
Its Activity is 16 mm.

What about the Activity (Echinochloa esculenta [15]) of the same compound?
The Activity was 10.8 mm.

And the Activity (Echinochloa esculenta [16])?
Its Activity is 11.2 mm.

And the Root length [17]?
The Root length was 26.8 mm.

And the Activity [18]?
Its Activity is 14.1 mm.

And the Activity [19]?
The Activity was 3.5 mm.

What about the Activity (Lactuca sativa [20]) of the same compound?
The Activity was 6.1 mm.

And the Activity (Lactuca sativa [21])?
Its Activity is 5.9 mm.

What about the Activity (Lactuca sativa [22]) of the same compound?
Its Activity is 3.2 mm.

What about the Activity (Daucus carota [23]) of the same compound?
Its Activity is 10.8 mm.

What about the Activity (Daucus carota [24]) of the same compound?
The Activity was 11.2 mm.

What about the Activity (Daucus carota [25]) of the same compound?
Its Activity is 2.4 mm.

And the Activity (Daucus carota [26])?
The Activity was 0 mm.

What about the Activity (Sesamum indicum [27]) of the same compound?
The Activity was 6.8 mm.

And the Activity (Sesamum indicum [28])?
The Activity was 0 mm.

What about the mortality at 72 h [29] of the same compound?
The mortality at 72 h was 20%.

What about the mortality at 72 h [30] of the same compound?
Its mortality at 72 h is 60%.

What about the mortality at 72 h [31] of the same compound?
The mortality at 72 h was 60%.

What about the mortality at 72 h [32] of the same compound?
The mortality at 72 h was 80%.

And the mortality at 48 h [33]?
Its mortality at 48 h is 0%.

What about the mortality at 48 h [34] of the same compound?
The mortality at 48 h was 80%.

And the mortality at 48 h [35]?
Its mortality at 48 h is 60%.

What about the mortality at 24 h [36] of the same compound?
Its mortality at 24 h is 20%.

What about the mortality at 24 h [37] of the same compound?
Its mortality at 24 h is 0%.

And the mortality at 24 h [38]?
The mortality at 24 h was 60%.

What about the mortality at 24 h [39] of the same compound?
Its mortality at 24 h is 60%.

And the mortality at 24 h [40]?
The mortality at 24 h was 80%.

And the Activity [41]?
The Activity was 4.78%.

What about the Activity [42] of the same compound?
Its Activity is 4.36%.

And the Activity [43]?
Its Activity is 8.05%.

What about the mortality at 96 h [44] of the same compound?
The mortality at 96 h was 20%.

What about the mortality at 96 h [45] of the same compound?
Its mortality at 96 h is 60%.

What about the mortality at 96 h [46] of the same compound?
Its mortality at 96 h is 100%.

What about the mortality at 144 h [47] of the same compound?
The mortality at 144 h was 60%.

What about the mortality at 144 h [48] of the same compound?
The mortality at 144 h was 60%.

What about the mortality at 144 h [49] of the same compound?
The mortality at 144 h was 80%.

And the mortality at 120 h [50]?
Its mortality at 120 h is 20%.

And the mortality at 120 h [51]?
Its mortality at 120 h is 60%.

What about the mortality at 120 h [52] of the same compound?
Its mortality at 120 h is 80%.
